Patent US5798356A, “Angiostatic compounds” (Alcon Laboratories, Inc., priority 1996, dated 1998)

Legend:
[1] = system: human umbilical vein endothelial cells (HUVEC); assay: inhibition of endothelial cell proliferation (HUVEC); format: cell-based; details: for inhibition at 1 µM / inhibition at 5 µM / inhibition at 10 µM / inhibition at 25 µM: Homo sapiens; for inhibition at 25 µM: concentration 25 μM
Method: Representative compounds of the present invention were assayed for their efficacy in inhibiting endothelial cell proliferation. […] At mid-log phase the cells were detached from the plate and counted using a coulter counter. Viability tests were conducted using trypan blue. The data is expressed as percent inhibition based on the control number of endothelial cells counted.

[2] = system: chorioallantoic membrane (CAM); assay: inhibition of angiogenesis in a chorioallantoic membrane (CAM) model; format: in vivo, chicken embryo; details: 10 μg in liposome/agarose bead on CAM, 2 days; percent responding embryos per nanomole relative to tetrahydrocortisol
Method: Representative compounds of the present invention were assayed for their efficacy in inhibiting angiogenesis in a chorioallantoic membrane (CAM) model (See, McNatt, et al., Angiostatic Activity and Metabolism of Cortisol in The Chorioallantoic Membrane (CAM) of the Chick Embryo, Journal of Steriod Biochemistry and Molecular Biology, volume 42, No. 7, pages 687-693 (1992)). Briefly, 10 μg of the test compound or reference compound (tetrahydrocortisol) were suspended in a liposome/agarose bead and placed on the CAM of a 5-6 day chicken embryo. Following 2 days of incubation, the CAMs were scored for relative angiostatic activity by comparing percent responding embryos per nanomole test compound to percent responding embryos for the reference compound.

rabbit cornea = assay: rabbit model of lipopolysaccharide (LPS) induced corneal neovascularization; format: in vivo; details: Elvax-40 pellet in cornea, Elvax control = 100
Method: Representative compounds of the present invention were assayed for their efficacy in inhibiting angiogenesis in vivo, in a rabbit model of lipopolysaccharide (LPS) induced corneal neovascularization. Briefly, the test compound and LPS (a stimulus for initiating neovascularization) are incorporated into separate Elvax-40 pellets as described in D. […] The area covered by new vessel formation in response to LPS is measured and suppression of neovascularization by test compounds is estimated at the end of the test period. The data is expressed as a relative area units in relation to the Elvax control (100).

[3] = system: human lung microvascular endothelial cells; assay: inhibition of 3H-thymidine uptake in DNA as a measure of DNA synthesis; format: cell-based; details: Endothelial cell, 18 hours exposure, then 3H-thymidine 6 hours; for inhibition at 5 µM: concentration 5.0 μM; for inhibition at 10 µM: concentration 10 μM; for inhibition at 25 µM: concentration 25 μM
Method: Representative compounds of the present invention were assayed for their efficacy in inhibiting ^3 H-thymidine uptake in DNA as a measure of DNA synthesis (R.I. Freshney, Culture of Animal Cells, 3rd Edition, John Wiley and Sons, N.Y., N.Y., pages 277-278 (1994)). Briefly, human lung microvascular endothelial cells in mid-log phase were exposed to either a representative compound of the present invention or the vehicle (1.0% DMSO) for 18 hours. Cells were then incubated with ^3 H-thymidine for another 6 hours. DNA synthesis was stopped by the addition of cold 5% TCA solution and the relative synthesis assessed by measuring ^3 H-thymidine incorporated into the acid-insoluble product. The data is expressed as percent inhibition of uptake based on tritium counts in the vehicle control reactions.

Row | Compound | inhibition at 1 µM ([1]; concentration 1.0 μM) [%] | inhibition at 5 µM ([1]; concentration 5.0 μM) [%] | inhibition at 10 µM ([1]; concentration 10 μM) [%] | inhibition at 25 µM [1] [%] | RAF (Relative Angiostatic Factor) [2] | Relative Area of Neovascularization (rabbit cornea; day 4) [relative area units] | Relative Area of Neovascularization (rabbit cornea; day 9) [relative area units] | Relative Area of Neovascularization (rabbit cornea; day 15) [relative area units] | Relative Area of Neovascularization (rabbit cornea; day 22) [relative area units] | also measured
1 | Cc1c(C)c2c(c(C)c1OC(=O)CCC(=O)O)CCC(C)(CCCC(C)CCCC(C)CCCC(C)C)O2 (stereo not shown) [Compound G] | 43 | 8 | 35.1 | 65.5 | 1.21 | – | – | – | – | –
2 | C[C@]12CCC(=O)C=C1CC[C@@H]1[C@@H]2[C@@H](O)C[C@@]2(C)[C@H]1CC[C@]2(O)C(=O)COC(=O)CCC(=O)O [Hydrocortisone hemisuccinate, reference compound] | – | – | – | – | – | 0 | 1.5 | 0.6 | 4.9 | –
3 | COc1ccc2cc(C(C)C(=O)OCC3(C)Cc4c(C)c(O)c(C)c(C)c4O3)ccc2c1 (stereo not shown) [Compound B] | 5 | 13.9 | 47.7 | 60.5 | 1.06 | – | – | – | – | inhibition at 5 µM [3]: 36.9%; inhibition at 10 µM [3]: 63.1%; inhibition at 25 µM [3]: 97.9%
4 | COc1ccc2cc(C(C)C(=O)OCCC3(C)CCc4c(C)c(O)c(C)c(C)c4O3)ccc2c1 (stereo not shown) [Compound A] | 6.7 | 25.5 | 43.4 | 55.2 | 0.10 | 66 | 54 | 48 | 103 | inhibition at 5 µM [3]: 16.3%; inhibition at 10 µM [3]: 25.7%; inhibition at 15 µM ([3]; concentration 15 μM): 57.4%; inhibition at 20 µM ([3]; concentration 20 μM): 82.9%; inhibition at 25 µM [3]: 96.5%
5 | Cc1c(C)c2c(c(C)c1O)CC(C)(CCN1CCN(C(c3ccc(F)cc3)c3ccc(F)cc3)CC1)O2 (stereo not shown) [Compound E] | 25 | 48 | 88 | 91 | 1.78 | 99 | 76 | 88 | 115 | –
6 | Cc1c(C)c2c(c(C)c1O)CCC(C)(CCO)O2 (stereo not shown) [F] | – | – | – | – | – | 92 | 85 | 30 | 39 | –
7 | C[C@]12CC[C@@H](O)C[C@H]1CC[C@@H]1[C@@H]2[C@@H](O)C[C@@]2(C)[C@H]1CC[C@]2(O)C(=O)CO [Tetrahydrocortisol, tetrahydrocortisol, reference compound] | – | – | – | – | 1.00 | – | – | – | – | –
8 | COc1ccc2cc(C(C)C(=O)NCC3(C)CCc4c(C)c(O)c(C)c(C)c4O3)ccc2c1 (stereo not shown) [C] | – | – | – | – | – | 102 | 57 | 41 | 60 | –
9 | Vitamin E [reference compound] | – | – | – | – | – | – | – | – | – | % Inhibition of Endothelial Cell Proliferation ([1]; concentration 1.0 μM): 0%; % Inhibition of Endothelial Cell Proliferation ([1]; concentration 5.0 μM): 0%; % Inhibition of Endothelial Cell Proliferation ([1]; concentration 10 μM): 1%
